Tests used:
[1] = test system: Brain; experiment: Biodistribution in S180 tumor-bearing mouse brain at 8 to 10 uCi, iv after 30 mins by gamma counting; format: ADME, organism-based; conditions: in vivo, 0.5 h
[2] = test system: Nucleic Acid; experiment: Ratio of drug level in tumor to muscle in S180 tumor-bearing mouse at 8 to 10 uCi, iv at 5 mins by gamma counting; format: ADME, organism-based; conditions: in vivo
[3] = test system: Plasma; experiment: Metabolic stability in mouse plasma after 2 hrs by radio-HPLC analysis; format: ADME, cell-free
[4] = test system: Spleen; experiment: Biodistribution in S180 tumor-bearing mouse spleen at 8 to 10 uCi, iv after 60 mins by gamma counting; format: ADME, organism-based; conditions: in vivo, 1 h
[5] = test system: Nucleic Acid; experiment: Ratio of drug level in tumor to blood in S180 tumor-bearing mouse at 8 to 10 uCi, iv at 60 mins by gamma counting; format: ADME, organism-based; conditions: tumour, 1 h
[6] = test system: Lung; experiment: Biodistribution in S180 tumor-bearing mouse lung at 8 to 10 uCi, iv after 120 mins by gamma counting; format: ADME, organism-based; conditions: in vivo, 2 h
[7] = test system: Muscle tissue; experiment: Biodistribution in S180 tumor-bearing mouse muscle at 8 to 10 uCi, iv after 120 mins by gamma counting; format: ADME, organism-based; conditions: in vivo, 2 h
[8] = test system: Liver; experiment: Biodistribution in S180 tumor-bearing mouse liver at 8 to 10 uCi, iv after 30 mins by gamma counting; format: ADME, organism-based; conditions: in vivo, 0.5 h
[9] = n-octanol-PBS partition coefficient, logP of the compound; format: physicochemical
[10] = test system: Brain; experiment: Biodistribution in S180 tumor-bearing mouse brain at 8 to 10 uCi, iv after 60 mins by gamma counting; format: ADME, organism-based; conditions: in vivo, 1 h
[11] = test system: Heart; experiment: Biodistribution in S180 tumor-bearing mouse heart at 8 to 10 uCi, iv after 30 mins by gamma counting; format: ADME, organism-based; conditions: in vivo, 0.5 h
[12] = test system: Kidney; experiment: Biodistribution in S180 tumor-bearing mouse kidney at 8 to 10 uCi, iv after 120 mins by gamma counting; format: ADME, organism-based; conditions: in vivo, 2 h
[13] = test system: Blood; experiment: Biodistribution in S180 tumor-bearing mouse blood at 8 to 10 uCi, iv after 120 mins by gamma counting; format: ADME, organism-based; conditions: in vivo, 2 h
[14] = test system: Lung; experiment: Biodistribution in S180 tumor-bearing mouse lung at 8 to 10 uCi, iv after 30 mins by gamma counting; format: ADME, organism-based; conditions: in vivo, 0.5 h
[15] = test system: Mus musculus; experiment: Biodistribution in S180 cells xenografted in mouse tumor at 8 to 10 uCi, iv after 60 mins by gamma counting; format: ADME, organism-based, Neoplasm, CCRF S-180; conditions: in vivo, 1 h
[16] = test system: Lung; experiment: Biodistribution in S180 tumor-bearing mouse lungs at 8 to 10 uCi, iv after 5 mins by gamma counting; format: ADME, organism-based; conditions: in vivo
[17] = test system: Nucleic Acid; experiment: Ratio of drug level in tumor to brain in S180 tumor-bearing mouse at 8 to 10 uCi, iv at 30 mins by gamma counting; format: ADME, organism-based; conditions: in vivo, 0.5 h
[18] = test system: Heart; experiment: Biodistribution in S180 tumor-bearing mouse heart at 8 to 10 uCi, iv after 60 mins by gamma counting; format: ADME, organism-based; conditions: in vivo, 1 h
[19] = test system: Nucleic Acid; experiment: Ratio of drug level in tumor to muscle in S180 tumor-bearing mouse at 8 to 10 uCi, iv at 60 mins by gamma counting; format: ADME, organism-based; conditions: in vivo, 1 h
[20] = test system: Liver; experiment: Biodistribution in S180 tumor-bearing mouse liver at 8 to 10 uCi, iv after 5 mins by gamma counting; format: ADME, organism-based; conditions: in vivo
[21] = Chemical stability in PBS after 2 hrs by radio-HPLC analysis at 60 degC; format: physicochemical; conditions: buffer
[22] = test system: Muscle tissue; experiment: Biodistribution in S180 tumor-bearing mouse muscle at 8 to 10 uCi, iv after 60 mins by gamma counting; format: ADME, organism-based; conditions: in vivo, 1 h
[23] = test system: Nucleic Acid; experiment: Ratio of drug level in tumor to brain in S180 tumor-bearing mouse at 8 to 10 uCi, iv at 5 mins by gamma counting; format: ADME, organism-based; conditions: in vivo
[24] = test system: Spleen; experiment: Biodistribution in S180 tumor-bearing mouse spleen at 8 to 10 uCi, iv after 5 mins by gamma counting; format: ADME, organism-based; conditions: in vivo
[25] = test system: Brain; experiment: Biodistribution in S180 tumor-bearing mouse brain at 8 to 10 uCi, iv after 5 mins by gamma counting; format: ADME, organism-based; conditions: in vivo
[26] = test system: Kidney; experiment: Biodistribution in S180 tumor-bearing mouse kidneys at 8 to 10 uCi, iv after 5 mins by gamma counting; format: ADME, organism-based; conditions: in vivo
[27] = test system: Mus musculus; experiment: Biodistribution in S180 cells xenografted in mouse tumor at 8 to 10 uCi, iv after 30 mins by gamma counting; format: ADME, organism-based, Neoplasm, CCRF S-180; conditions: in vivo, 0.5 h
[28] = test system: Heart; experiment: Biodistribution in S180 tumor-bearing mouse heart at 8 to 10 uCi, iv after 5 mins by gamma counting; format: ADME, organism-based; conditions: in vivo
[29] = test system: Mus musculus; experiment: Biodistribution in S180 cells xenografted in mouse tumor at 8 to 10 uCi, iv after 5 mins by gamma counting; format: ADME, organism-based, Neoplasm, CCRF S-180; conditions: in vivo
[30] = test system: Liver; experiment: Biodistribution in S180 tumor-bearing mouse liver at 8 to 10 uCi, iv after 120 mins by gamma counting; format: ADME, organism-based; conditions: in vivo, 2 h
[31] = test system: Kidney; experiment: Biodistribution in S180 tumor-bearing mouse kidney at 8 to 10 uCi, iv after 30 mins by gamma counting; format: ADME, organism-based; conditions: in vivo, 0.5 h
[32] = test system: Stomach; experiment: Biodistribution in S180 tumor-bearing mouse stomach at 8 to 10 uCi, iv after 5 mins by gamma counting; format: ADME, organism-based; conditions: in vivo
[33] = test system: Nucleic Acid; experiment: Ratio of drug level in tumor to blood in S180 tumor-bearing mouse at 8 to 10 uCi, iv at 120 mins by gamma counting; format: ADME, organism-based; conditions: tumour, 2 h
[34] = test system: Brain; experiment: Biodistribution in S180 tumor-bearing mouse brain at 8 to 10 uCi, iv after 120 mins by gamma counting; format: ADME, organism-based; conditions: in vivo, 2 h
[35] = test system: Mus musculus; experiment: Biodistribution in S180 cells xenografted in mouse tumor at 8 to 10 uCi, iv after 120 mins by gamma counting; format: ADME, organism-based, Neoplasm, CCRF S-180; conditions: in vivo, 2 h
[36] = test system: Blood; experiment: Biodistribution in S180 tumor-bearing mouse blood at 8 to 10 uCi, iv after 5 mins by gamma counting; format: ADME, organism-based; conditions: in vivo
[37] = test system: Stomach; experiment: Biodistribution in S180 tumor-bearing mouse stomach at 8 to 10 uCi, iv after 30 mins by gamma counting; format: ADME, organism-based; conditions: in vivo, 0.5 h
[38] = test system: Muscle tissue; experiment: Biodistribution in S180 tumor-bearing mouse muscle at 8 to 10 uCi, iv after 30 mins by gamma counting; format: ADME, organism-based; conditions: in vivo, 0.5 h
[39] = test system: Nucleic Acid; experiment: Ratio of drug level in tumor to brain in S180 tumor-bearing mouse at 8 to 10 uCi, iv at 60 mins by gamma counting; format: ADME, organism-based; conditions: in vivo, 1 h
[40] = test system: Blood; experiment: Clearance in S180 tumor-bearing mouse blood at 8 to 10 uCi, iv at 120 mins; format: ADME, organism-based; conditions: in vivo, 2 h
[41] = test system: Nucleic Acid; experiment: Ratio of drug level in tumor to blood in S180 tumor-bearing mouse at 8 to 10 uCi, iv at 5 mins by gamma counting; format: ADME, organism-based; conditions: tumour
[42] = test system: Nucleic Acid; experiment: Ratio of drug level in tumor to muscle in S180 tumor-bearing mouse at 8 to 10 uCi, iv at 120 mins by gamma counting; format: ADME, organism-based; conditions: in vivo, 2 h
[43] = Chemical stability in PBS after 2 hrs by radio-HPLC analysis at room temperature; format: physicochemical; conditions: buffer
[44] = test system: Nucleic Acid; experiment: Ratio of drug level in tumor to blood in S180 tumor-bearing mouse at 8 to 10 uCi, iv at 30 mins by gamma counting; format: ADME, organism-based; conditions: tumour, 0.5 h
[45] = test system: Liver; experiment: Biodistribution in S180 tumor-bearing mouse liver at 8 to 10 uCi, iv after 60 mins by gamma counting; format: ADME, organism-based; conditions: in vivo, 1 h
[46] = test system: Lung; experiment: Biodistribution in S180 tumor-bearing mouse lung at 8 to 10 uCi, iv after 60 mins by gamma counting; format: ADME, organism-based; conditions: in vivo, 1 h
[47] = test system: Stomach; experiment: Biodistribution in S180 tumor-bearing mouse stomach at 8 to 10 uCi, iv after 60 mins by gamma counting; format: ADME, organism-based; conditions: in vivo, 1 h
[48] = test system: Heart; experiment: Biodistribution in S180 tumor-bearing mouse heart at 8 to 10 uCi, iv after 120 mins by gamma counting; format: ADME, organism-based; conditions: in vivo, 2 h
[49] = test system: Blood; experiment: Biodistribution in S180 tumor-bearing mouse blood at 8 to 10 uCi, iv after 60 mins by gamma counting; format: ADME, organism-based; conditions: in vivo, 1 h
[50] = test system: Spleen; experiment: Biodistribution in S180 tumor-bearing mouse spleen at 8 to 10 uCi, iv after 30 mins by gamma counting; format: ADME, organism-based; conditions: in vivo, 0.5 h
[51] = test system: Muscle tissue; experiment: Biodistribution in S180 tumor-bearing mouse muscle at 8 to 10 uCi, iv after 5 mins by gamma counting; format: ADME, organism-based; conditions: in vivo
[52] = test system: Blood; experiment: Biodistribution in S180 tumor-bearing mouse blood at 8 to 10 uCi, iv after 30 mins by gamma counting; format: ADME, organism-based; conditions: in vivo, 0.5 h
[53] = test system: Nucleic Acid; experiment: Ratio of drug level in tumor to brain in S180 tumor-bearing mouse at 8 to 10 uCi, iv at 120 mins by gamma counting; format: ADME, organism-based; conditions: in vivo, 2 h
[54] = test system: Stomach; experiment: Biodistribution in S180 tumor-bearing mouse stomach at 8 to 10 uCi, iv after 120 mins by gamma counting; format: ADME, organism-based; conditions: in vivo, 2 h
[55] = test system: Spleen; experiment: Biodistribution in S180 tumor-bearing mouse spleen at 8 to 10 uCi, iv after 120 mins by gamma counting; format: ADME, organism-based; conditions: in vivo, 2 h
[56] = test system: Nucleic Acid; experiment: Ratio of drug level in tumor to muscle in S180 tumor-bearing mouse at 8 to 10 uCi, iv at 30 mins by gamma counting; format: ADME, organism-based; conditions: in vivo, 0.5 h
[57] = test system: Kidney; experiment: Biodistribution in S180 tumor-bearing mouse kidney at 8 to 10 uCi, iv after 60 mins by gamma counting; format: ADME, organism-based; conditions: in vivo, 1 h

C#Cc1cccc(Nc2ncnc3cc(OC)c(OCC[18F])cc23)c1
Drug uptake [1]: 2.59 % ID/g | Ratio [2]: 1.89 | Stability [3]: Stable | Drug uptake [4]: 0.77 % ID/g | Ratio [5]: 2.5 | Drug uptake [6]: 1.62 % ID/g | Drug uptake [7]: 1.36 % ID/g | Drug uptake [8]: 7.63 % ID/g | logP [9]: 1.64 | Drug uptake [10]: 0.3 % ID/g | Drug uptake [11]: 2.85 % ID/g | Drug uptake [12]: 1.27 % ID/g | Drug uptake [13]: 0.77 % ID/g | Drug uptake [14]: 2.99 % ID/g | Drug uptake [15]: 2.98 % ID/g | Drug uptake [16]: 3.6 % ID/g | Ratio [17]: 1.28 | Drug uptake [18]: 1.99 % ID/g | Ratio [19]: 3.63 | Drug uptake [20]: 8.75 % ID/g | Stability [21]: Stable | Drug uptake [22]: 0.82 % ID/g | Ratio [23]: 0.25 | Drug uptake [24]: 0.98 % ID/g | Drug uptake [25]: 5.51 % ID/g | Drug uptake [26]: 6.35 % ID/g | Drug uptake [27]: 3.32 % ID/g | Drug uptake [28]: 8.68 % ID/g | Drug uptake [29]: 1.4 % ID/g | Drug uptake [30]: 3.4 % ID/g | Drug uptake [31]: 4.16 % ID/g | Drug uptake [32]: 8.56 % ID/g | Ratio [33]: 2.35 | Drug uptake [34]: 1.5 % ID/g | Drug uptake [35]: 1.81 % ID/g | Drug uptake [36]: 7.56 % ID/g | Drug uptake [37]: 5.94 % ID/g | Drug uptake [38]: 1.74 % ID/g | Ratio [39]: 9.93 | CL [40]: 90% | Ratio [41]: 0.19 | Ratio [42]: 1.33 | Stability [43]: Stable | Ratio [44]: 1.08 | Drug uptake [45]: 4.07 % ID/g | Drug uptake [46]: 1.88 % ID/g | Drug uptake [47]: 4.14 % ID/g | Drug uptake [48]: 1.03 % ID/g | Drug uptake [49]: 1.19 % ID/g | Drug uptake [50]: 1.93 % ID/g | Drug uptake [51]: 0.74 % ID/g | Drug uptake [52]: 3.06 % ID/g | Ratio [53]: 1.21 | Drug uptake [54]: 1.07 % ID/g | Drug uptake [55]: 1.04 % ID/g | Ratio [56]: 1.91 | Drug uptake [57]: 2.53 % ID/g
